A short description of data set [1]: DPPH free radical scavenging assay. As to the method:
The antioxidant property of different tryptamine derivatives were assessed and compared with the known antioxidants for potency. A range of different synthesized compounds and known anti oxidants, quercetin, ascorbic acid and gallic acid were analyzed by the FRAP assay. The FRAP assay is based on the measurement of the ability of the substance to reduce Fe^3+ to Fe^2+, greater the reducing ability greater the anti oxidant property. Antioxidants reduce Fe^3+-TPTZ in to blue colored Fe^2+-TPTZ complex, which results in an increase in the absorbance at 595 nm giving a FRAP value. […] Absorbance changes at different time intervals (FIG. 6) as well as at different concentrations (FIG. 7) at time 6 min in the presence of different compounds at 595 nm were measured. FRAP values at 6 min and 65 min were calculated from different tryptamine derivatives and some known antioxidant (Table 1). […] DPPH assay based on the DPPH free radicals scavenging power of the antioxidant molecules. Higher the scavenging power higher will be the antioxidant property. […] This assay was performed in presence of some known antioxidants such as ascorbic acid, quercetin and gallic acid.
2,2-Diphenyl-1-Picrylhydrazyl (DPPH) is a stable free radical that can accept hydrogen radical or an electron and become a stable diamagnetic molecule. The antioxidants can scavenge the DPPH by donating hydrogen as visualized by discoloration of the DPPH radical from purple to yellow (Pal, C; et al. Free Radic Biol Med, 49(2), 258-267; 2010, Ben Farhat, M.; et al. J. Agric. Food Chem. 57:10349-10356; 2009, Han, J; et al. Wei Sheng Yan Jiu 38:596-598; 2009). The assay system contained 1 mL of compounds under investigation dissolved (in methanol, some compound dissolved in water) at different concentrations in the range 10-100 μM solution and 4 ml of DPPH (0.15 mM) in methanol (80% in water v/v) and mixed well. It was allowed to stand for 30 min at 27° C. away from light. Ascorbic acid at the same concentration was taken as positive control. The absorbance of the solution was measured spectrophotometrically at 517 nm and from the decrease of absorption; the antioxidant activity of different tryptamine derivatives were determined.
In general terms: DPPH is a stable violet radical that fades when it is reduced.

Data set [2] deals with cold-restrain stress induced mucosal injury. The data set can be described thus: Cold-restrain stress induced mucosal injury. It is filed as in vivo, Sprague-Dwaley rats. The note with it: immobilized at 4° C. for 3.5 hrs; rats.
Data set [3] relates to indomethacin-induced gastric mucosal injury. The data set can be described thus: Healing effect on indomethacin-induced gastric damage. Conditions: 50 mg kg^−1 i.p. 4 hrs after indomethacin 48 mg kg^−1. It counts as in vivo, Sprague-Dwaley rats. How it is done:
Gastric mucosal injury was first induced with indomethacin treatment at a dose of 48 mg kg^−1. After 4 hrs of the induction of mucosal injury, some of the animals were divided into two different groups (n=6), i.e., auto healing and SEGA-induced healing. This time point was referred as ‘0’ hr of healing. At this point of time, in the SEGA-induced healing group, SEGA was administered (i.p) at the dose of 50 mg kg^−1 (this dose was selected from the dose-response curve). The animals, which were not treated with SEGA and received only indomethacin, served as the auto healing group. Starting from 0 hr, the stomach was dissected out from all groups at the intervals of 2 hrs, 4 hrs and 8 hrs respectively for measuring ulcer index as described (Maity, P.; et al. J. Biol. Chem. 283:14391-14401; 2008) and histological studies.

A further data set has as its system gastric mucosal cells. The data set can be described thus: TUNEL assay of gastric mucosa in vivo. More on the design: species or system rats.
Data set [4] concerns gastric mucosal primary cultured cells. The data set can be described thus: Mitochondrial dehydrogenase activity (MTT reduction assay). It is filed as cell-based, rat. How it is done: Mitochondrial metabolic function was studied by observing the ability of mitochondrial dehydrogenases to reduce MTT ([3-(4,5-dimethylthiazol-2-yl)-2,5-diphenyl tetrazolium bromide]) into formazan dye (Pal, C; et al. Free Radic Biol Med, 49(2), 258-267; 2010). Equal number of gastric mucosal primary cultured cells were taken (10^6) in each well of a 12 well plate and were divided into three groups control, indomethacin treated (5 mM) and SEGA (50 μM) plus indomethacin (5 mM)-treated. After incubating for 16 hrs, cells were dissociated and centrifuged at 500×g for 5 min and the supernatant was then discarded. Cell pellet was reconstituted in fresh cell culture media. Equal number of cells (10^5 cells) in a final volume of 100 μl cell culture media from each group was then taken in 96 well plates in triplicates. MTT (0.1% final concentration) solution was added to each well of both control and experimental groups, mixed well and incubated for 3 hrs at 37° C. in a CO2 incubator. After the incubation, the culture medium was aspirated carefully and the insoluble formazan crystals at the bottom of the well were solubilized with 100 μl of MTT solubilization solution containing 10% Triton X-100 plus 0.1 N HCl in anhydrous isopropanol. The MTT reduction (absorbance of formazan dye) was measured at 570 nm.

As to `O=C(NCCc1c[nH]c2ccc(O)cc12)c1cc(O)c(O)c(O)c1` [Compound 3a, 3,4,5-trihydroxy-N-(2-(5-hydroxy-1H-indol-3-yl)ethyl)benzamide], the “DPPH scavenging power in words” value in data set [1] (among all the derivatives) is reported as “higher scavenging power”. Besides, the “Absorbance change (ΔA) at 30 min” value is given as 0.45 ± 0.08 in data set [1] (compounds 100 μM, 517 nm (Table 2)); 0.27 ± 0.03 in data set [1] (concentration 10 μM (Table 3)); 0.34 ± 0.05 in data set [1] (concentration 30 μM (Table 3)); 0.37 ± 0.07 in data set [1] (concentration 50 μM (Table 3)); 0.42 ± 0.07 in data set [1] (concentration 80 μM (Table 3)); 0.45 ± 0.08 in data set [1] (concentration 100 μM (Table 3)). For the same compound, in data set [1] (data not shown), the “antioxidant power compared with ascorbic acid, quercetin and gallic acid” value was “almost equal antioxidant power”. Moreover, the “gastroprotective effect in stress induced gastropathy” value in data set [2] is on record as “protects the gastric mucosa”. For the same compound, the “healing of already damaged gastric mucosa (ulcer index)” value in data set [3] was “accelerates the healing process”. In the data set with gastric mucosal cells, the “indomethacin-induced apoptosis (TUNEL) in vivo” value was “prevents the indomethcin-induced apoptosis”. For the same compound, the “toxicity as established by MTT reduction assay” value in data set [4] was “non toxic molecule”. Besides, the “mitochondrial dehydrogenase activity (MTT reduction)” value in data set [4] (SEGA 50 μM plus indomethacin 5 mM, 16 hrs) is “restores all the NSAIDs-induced mitochondrial dysfuctions”.
